Values quoted from earlier work, collected in US20260297044A1, “INHIBITORS OF SPINSTER HOMOLOG 2 (SPNS2) FOR USE IN THERAPY” (University of Virginia Patent Foundation, priority 2023, published 2026).

Tested on: Spns2
Conditions: two models of kidney fibrosis, mice

CCCCCCCCCCc1ccc(-c2noc(CCCN)n2)cc1 [SLF1081851]
fibrosis: significantly less fibrosis | function of the injured kidney: improved function of the injured kidney
